In patent US8940911B2, “Squarylated lactones inhibitors for bacterial biofilm formation” (Syracuse University, priority 2012, dated 2015):

Legend:
E. coli RP437 = test: Static biofilm inhibition assay (crystal violet, 96-well plate); format: cell-based, Escherichia coli; conditions: E. coli RP437, 200 μM, 24 h, crystal violet
Description: A primary objective was to test the ability of SHLs to inhibit biofilm formation against E. coli RP437. […] Viable controls were required that would allow us to measure and compare the activity of SHLs against known biofilm inhibitors and naturally occurring AI-1 signal molecules. […] The activity of this class of molecule is presumably similar or even marginally higher than that of brominated furanone (BF8 48) (56%).
For the present invention, the E. coli RP437 biofilms were allowed to develop in a 96-well plate in the absence or presence of SHLs. After 24 hours, the planktonic bacteria and remaining media were removed and the crystal violet was introduced in the wells. The bacterial biofilm being formed at the air/liquid interface on the inside wall of the well is stained readily by crystal violet. After removing the excess crystal violet and repeatedly washing the wells with water, followed by ethanol solubilization of the dye, allows quantification of the amount of biofilm by spectrophotometry (OD600). […] We believe that the observed biofilm inhibition activity cannot be directly attributed to any predominant structural feature inherent in the SHLs. Rather, the small deviations in the structures of the SHLs and their effect on biofilm formation could be a result of the nature of non-covalent forces that arise during SHLs presumed binding within the receptor active site.
An overnight culture of E. coli RP437 grown in LB media (OD600 of 1.0) containing streptomycin (10 μg/mL) was subsequently sub-cultured to an OD600 of 0.04 (1:100 dilution with LB media). To each well in the solvent resistant polypropylene or polystyrene-based 96-well microtiter plates were added 200 μL of the sub-cultured bacteria respectively. To each of the wells containing the bacterial cultures varying concentrations of the synthetic molecules was added and the contents in each well were gently mixed. Control wells comprised of untreated bacterial culture (four replicates) and the LB media (four replicates). The microtiter plates were then covered and wrapped in a Saran wrap and allowed to incubate at 37° C. for 24 hours without shaking. After that time, the microbial medium in each well was discarded and the remaining biofilm that was formed during incubation was stained with 225 μL of a 0.1% crystal violet solution and allowed to incubate at room temperature for 30 minutes. After the incubation period, the crystal violet was discarded and the wells were gently washed twice with water (230-250 μL) and allowed to air dry for 15-20 minutes. For the purpose of solubilizing the remaining crystal violet that had stained the biofilm present in the interior of the 96-well plates, a 250 μL solution of 95% ethanol was used. After the addition of 95% ethanol, the contents of each well were mixed thoroughly and allowed to sit for 15-20 minutes. Finally, the biofilm formed was quantified by transferring 100 μL of the ethanol solution into a fresh polystyrene microtiter dish that was subsequently read by an absorbance plate reader (A600). After elimination of background absorbance, the percentage inhibition was calculated by dividing the amount of absorbed crystal violet in wells that contained the synthetic compound by the amount of absorbed crystal violet in wells that contained bacteria only (control). Biofilm assays for each synthetic compound were repeated two to three times and each concentration considered for inhibition studies were tested over four replicates.

[1] = test system: DsRed-express-labeled E. coli RP437; test: Confocal imaging of E. coli biofilms on stainless steel coupons (COMSTAT); format: cell-based, Escherichia coli; conditions: 200 μM, 24 h at 37° C., CLSM/COMSTAT
Experimental: The effects of SHLs upon the bacterial biofilm were examined; more specifically, the effect of SHLs upon the biofilm architecture. […] These studies were conducted by static biofilm assays employing crystal violet staining that indicates the total biomass that resides within a biofilm but provides no indication regarding the topology of the biofilms. To elucidate the topological features assumed by the E. coli RP437 biofilm in the presence of SHLs and BF8 48, studies of biofilms consisting of DsRed-express-labeled E. coli RP437 that is fluorescent and can be easily visualized by confocal laser scanning microscopy (CLSM) were performed. […] Further, the stacked images in vinyl-SHL 3 indicating the maximum thickness of the biofilm is considerably smaller than the biofilms in BF8 48 and the untreated E. coli samples. We developed the biofilms consisting of DsRed-express-labeled E. coli on stainless steel coupons (316 L, 1 in×1 in.) for 24 h at 37° C. that were treated with BF8 48 or SHLs or were left untreated. All the samples were analyzed with CLSM (see FIG. 8) and the maximum thickness of biofilms calculated using the COMSTAT software. […] Moreover, butyl-SHL 8 and butoxy-SCPA 46 reduce the biofilm thickness by 38% and 27%, respectively.
An overnight culture of E. coli RP437 pRSH103 grown in LB media (OD600 of 1.0) containing tetracycline (3 μg/mL) was subsequently sub-cultured to an OD600 of 0.04 (1:100 dilution with LB media). To each well in the solvent resistant polypropylene or polystyrene-based 24-well microtiter plates was added 200 μM synthetic molecules in DMSO solution respectively. In addition, to each of the wells containing the known concentrations of synthetic molecules was added 2 mL of the sub-cultured bacteria and the contents in each well were gently mixed. […] The fluorescent emission was detected with a LP 560 nm emission filter. The coupons were gently placed upside down on a microscope cover glass (24×60 mm, No. 2, VWR International LLC, West Chester, Pa., USA) and analyzed with CLSM. […]

SK-N-SH cells = test: Human neuroblastoma cancer cell cytotoxicity assay (CCK-8); format: cell-based; conditions: 200 or 300 μM, 1 h exposure, read after 24 h
Experimental: After examining the efficacy of SHLs at inhibiting biofilm, dispersing established biofilms, and reducing the maximum thickness of biofilms without being toxic to the planktonic bacterial cells, we tested the cytotoxicity of the key potent SHLs on the human neuroblastoma cancer cell line SK-N-SH. These studies were conducted such that the SK-N-SH cells were subjected to the maximum concentrations of the key potent SHLs tested on bacteria.
A previously grown T-flask of SK-N-SH cells was observed under a microscope to confirm the confluence of the cells. Next, the old media was discarded and the adherent cells were washed with ˜10 mL of MEM(−). The wash was discarded and 2 mL of Trypsin-EDTA solution was added to the T-flask and incubated for 10 minutes at 37° C. and at 5% atmosphere of CO2. Afterwards, the flask was viewed under a microscope to determine if the cells were suspended in the solution. Subsequently, ˜8 mL of MEM(+) was added to the flask and carefully mixed via pipette to break-up any large clusters of cells. 100 μL of the culture was added to an Eppendorf tube and combined with 100 μL of […]. A hemocytometer and glass cover slide was carefully cleaned with a kimwipe and ethanol. Placing the glass cover slide on top of the hemocytometer, 10 μL of the mixture in the Eppendorf tube was pipetted into the two grooves on the hemocytometer, avoiding the generation of bubbles. The hemocytometer was viewed one chamber at time under a microscope and the live cells were counted using the hemocytometer cell counting method. The remaining cell culture in the T-flask was diluted with MEM(+) to 25 mL such that there would be ˜5000 cells/mL. 100 μL of the culture was placed into wells on a 96 well plate such that one column had only MEM(+) and the wells on the outer perimeter of the plate were left empty. Four plates were made in this manner so that there would be plates for times 0, 24, 48, and 72 h. The plate was then incubated for 24 h at 37° C. and at 5% atmosphere of CO2. Subsequently, the old media was discarded and the wells were subjected to either 200 μM or 300 μM solutions of compounds 3, 4, 8, and 46 in MEM(+) (100 μL) such that one column still contained only MEM(+) and one column contained MEM(+) and untreated cells. The plate was incubated for 1 h and then the solutions were discarded and fresh MEM(+) media was added (100 μL). Each plate was then incubated for the desired time (0, 24, 48, or 72 h). After incubation, 10 μL of CCK-8 solution was added to each well and then the plate was incubated for 2 h followed by reading the OD450 with a microplate reader.

[2] = test system: P. aeruginosa PAO1-GFP/pSMC2; test: Confocal microscopy analysis of P. aeruginosa biofilms (COMSTAT); format: cell-based, Pseudomonas aeruginosa; conditions: 400 μM, 24 h at 37° C., CLSM/COMSTAT
Experimental: FIG. 13 is a series of representative confocal laser scanning microscopy images of biofilm formation by P. aeruginosa PAO1-GFP/pSMC2 in the absence of inhibitor (A); and in the presence of 400 μM BF4 49 (B); 400 μM hexyl-SHL 9 (C); 400 μM tolyl-SHL 11 (D); and 400 μM thienyl-SHL 12 (E).
FIG. 14 is a graph of quantification of biofilm formation by P. aeruginosa PAO1-GFP/pSMC2 in the absence and presence of 400 μM SHLs 9, 11 and 12. Biomass, mean thickness, and surface area are quantified from fluorescence image using COMSTAT software. Z-Stack images from at least four different locations were used. Values are normalized by that of the brominated furanone-free control.
We developed the biofilms consisting of […] P. aeruginosa on stainless steel coupons (316 L, ⅜ in×⅜ in.) for 24 h at 37° C. in the absence or presence of 400 μM hexyl-SHL 9, tolyl-SHL 11, thienyl-SHL 12, and BF4 49. All the samples were analyzed with CLSM (see FIG. 13) and the biomass, surface area, and mean thickness of biofilms were calculated using the COMSTAT software. Tolyl-SHL 11 reduced the biomass by ˜90%, similar to that of the toxic BF4 49.

Structure (SMILES) | biofilm inhibition (in words) (E. coli RP437) | inhibition of biofilm formation (E. coli RP437) [%] | also measured
CCCCOc1c(OCCCC)c(=O)c1=O [BSQ 44, 3,4-dibutoxy-cyclobut-3-ene-1,2-dione, reference compound] | Poor biofilm inhibition |  | 
CC(C)Oc1c(OC(C)C)c(=O)c1=O [IPSQ 42, reference compound] | Poor biofilm inhibition |  | 
C=CCc1c(NC2CCOC2=O)c(=O)c1=O (stereo not drawn) [allyl-SHL2] | Poor biofilm inhibition |  | 
CCCCOc1c(NC2CCOC2=O)c(=O)c1=O (stereo not drawn) [butoxy-SHL 1] | weaker biofilm inhibition |  | 
CCCCc1c(NC2CCOC2=O)c(=O)c1=O (stereo not drawn) [butyl-SHL 8] |  | 48 | reduction of the maximum thickness of biofilm [1]: 38%; cytotoxicity on human neuroblastoma cancer cells (in words) (SK-N-SH cells): does not appear to be toxic
CCCCCCc1c(NC2CCOC2=O)c(=O)c1=O (stereo not drawn) [hexyl-SHL 9] |  | 42 | P. aeruginosa biofilm inhibition (in words) [2]: mild
O=C1OCCC1Nc1c(-c2ccccc2)c(=O)c1=O (stereo not drawn) [phenyl-SHL 10] |  | 44 | 
C=Cc1c(NC2CCOC2=O)c(=O)c1=O [vinyl-L-SHL 4] | weaker biofilm inhibition |  | cytotoxicity on human neuroblastoma cancer cells (in words) (SK-N-SH cells): toxic
